Laboratory results reported in patent US20040006236A1, “Diaminopropionic acid derivatives” (priority 1999, published 2004).

Assays:
[1] = system: T lymphocyte proliferation (C57BI/6 spleen cells with irradiated BALB/c spleen cells); experiment: Mixed lymphocyte reaction (MLR), one-way; format: cell-based, mice; conditions: Mus musculus, T-lymphocyte; read-out: MLR IC50
Outline: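 Irradiated BALB/c spleen cells mixed with C57BI/6 spleen cells in RPMI1640/10% heat-inactivated FBS/2-mercaptoethanol, with serial antagonist dilutions; 3 days at 5% CO2. Tritiated thymidine (0.5 μCi/well) added on day 3; incorporation counted by liquid scintillation after a further 6 h.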

[2] = molecular target: T1, ICAM-1 binding to immobilized Mac-1 (Homo sapiens, UniProt P05107+P11215); experiment: Mac-1/ICAM-1 screening assay (solid-phase ELISA); conditions: read-out: Mac-1/ICAM-1 Protein-Protein Assay IC50
T1 construct: made in house; host or cells: transfected 293 cells (Mac-1)
T1 sequence (P05107 23-769, other chains not shown): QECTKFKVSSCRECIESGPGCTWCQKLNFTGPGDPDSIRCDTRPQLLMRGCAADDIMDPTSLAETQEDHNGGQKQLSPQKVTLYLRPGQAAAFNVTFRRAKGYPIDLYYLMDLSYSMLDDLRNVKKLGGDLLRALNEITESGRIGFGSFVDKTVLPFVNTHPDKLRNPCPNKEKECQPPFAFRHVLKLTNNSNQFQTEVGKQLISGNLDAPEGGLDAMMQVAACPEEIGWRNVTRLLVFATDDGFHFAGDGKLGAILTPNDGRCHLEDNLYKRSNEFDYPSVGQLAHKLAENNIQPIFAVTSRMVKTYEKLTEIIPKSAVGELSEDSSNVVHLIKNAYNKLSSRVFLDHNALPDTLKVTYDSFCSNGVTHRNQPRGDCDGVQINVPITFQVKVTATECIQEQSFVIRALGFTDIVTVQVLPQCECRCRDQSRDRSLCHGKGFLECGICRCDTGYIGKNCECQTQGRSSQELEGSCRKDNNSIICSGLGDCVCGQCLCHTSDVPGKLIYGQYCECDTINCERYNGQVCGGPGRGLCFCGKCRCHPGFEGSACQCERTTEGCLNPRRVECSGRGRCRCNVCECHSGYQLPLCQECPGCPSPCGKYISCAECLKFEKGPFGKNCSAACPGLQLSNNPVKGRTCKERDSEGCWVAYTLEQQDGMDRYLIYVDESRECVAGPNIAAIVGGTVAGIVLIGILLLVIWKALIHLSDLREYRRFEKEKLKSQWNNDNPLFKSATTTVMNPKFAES
Outline: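 Competitive solid-phase ELISA: membrane Mac-1 from transfected 293 cells coated at 3 μg/mL in 20 mM Hepes pH 7.2/0.14 M NaCl/1 mM MnCl2; compounds (0.12 nM-20 μM, 1:4 series) plus 5dICAM-Ig (40 μg/mL, added) 2 h at 37° C. Bound ICAM-Ig detected with HRP anti-human IgG Fc, TMB, A450; IC50 reported.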

[3] = system: cell-surface Mac-1 adhesion to immobilized fibrinogen (HL-60 cells); experiment: Mac-1/Fibrinogen cell-based screening assay; set-up: species or system human; conditions: Homo sapiens, HL-60, HL-60 cells; read-out: Mac-1/Fgn Cell based Assay IC50
Outline: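 Wells coated with fibrinogen and blocked with PVP. Labeled HL-60 cells (2×10^6 cells/mL in RPMI/0.05% BSA/0.2 mM MnCl2) preincubated with DMSO-diluted compounds for 10 min at 37° C, then left to adhere 30 min at 37° C/5% CO2. Unbound cells washed off with TBS.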

Structure (SMILES)	IC50 [1] [nM]	IC50 [2] [nM]	IC50 [3] [nM]
O=C(NCc1cccc(O)c1)c1ccc(C(=O)N[C@@H](CNC(=O)c2ccc3ccccc3c2)C(=O)O)c(Cl)c1 [Example 179]	5400	31	314
O=C(NCc1cccc(O)c1)c1ccc(C(=O)N[C@@H](CNC(=O)[C@@H]2CCCN2)C(=O)O)c(Cl)c1 [Example 196]	5500	16	63
O=C(NCc1cccc(O)c1)c1ccc(C(=O)N[C@@H](CNC(=O)c2cc(F)cc(F)c2)C(=O)O)c(Cl)c1 [Example 252, N-[2-chloro-4-[[[(3-hydroxyphenyl)methyl]amino]carbonyl]benzoyl]-3-(3,5-difluorobenzoyl)amino-L-alanine]	340	6.8	19
O=C(NCc1cccc(O)c1)c1ccc(C(=O)N[C@@H](CNC(=O)c2csnn2)C(=O)O)c(Cl)c1 [Example 254]	460	11	31
O=C(NCc1cccc(O)c1)c1ccc(C(=O)N[C@@H](CNC(=O)c2ccno2)C(=O)O)c(Cl)c1 [Example 256]	525	14	24
COc1cscc1C(=O)NC[C@H](NC(=O)c1ccc(C(=O)NCc2cccc(O)c2)cc1Cl)C(=O)O [Example 257]	1400	23	87
NCCCC(=O)NC[C@H](NC(=O)c1ccc(C(=O)NCc2cccc(O)c2)cc1Cl)C(=O)O [Example 261, N-[2-chloro-4-[[[(3-hydroxyphenyl)methyl]amino]-carbonyl]benzoyl]-3-(4-aminobutanoylamino)-L-alanine]	780	11	46
O=C(NCc1cccc(O)c1)c1ccc(C(=O)N[C@@H](CNC(=O)C2CCNCC2)C(=O)O)c(Cl)c1 [Example 262]	1800	15	49
O=C(NCc1cccc(O)c1)c1ccc(C(=O)N[C@@H](CNC(=O)c2ccccc2)C(=O)O)c(Cl)c1 [Example 302, 3-benzoylamino-N-[2-chloro-4-[[[(3-hydroxyphenyl)methyl]amino]carbonyl]benzoyl]-L-alanine]	310	31	74
O=C(NCc1cccc(O)c1)c1ccc(C(=O)N[C@@H](CNC(=O)c2cccs2)C(=O)O)c(Cl)c1 [Example 303, N-[2-chloro-4-[[[(3-hydroxyphenyl)methyl]amino]carbonyl]benzoyl]-3-(thiophene-2-carbonyl)amino-L-alanine]	70	6.4	8.7
O=C(NCc1cccc2[nH]ccc12)c1ccc(C(=O)N[C@@H](CNC(=O)c2ccccc2)C(=O)O)c(Cl)c1 [Example 314, 3-(benzoylamino)-N-[2-chloro-4-[[(1H-indol-4-ylmethyl)amino]carbonyl]benzoyl]-L-alanine]	625	40	162
Cc1cc(C(=O)NCc2cccc(O)c2)cc(Cl)c1C(=O)N[C@@H](CNC(=O)c1cccs1)C(=O)O [Example 338, N-[2-chloro-4-[[[(3-hydroxyphenyl)methyl]amino]carbonyl]-6-methylbenzoyl]-3-[(thiophene-2-carbonyl)amino]-L-alanine]	21	21	2.2
